Reference: the supplement of paper PMC10307832

Tests used:
Experiment in all cases: relative viability (nuclei count vs DMSO), 5 days (fraction); higher = more cells survive
[1] = compound: C1COCCN1C2=CC(=O)C3=C(O2)C(=CC=C3)C4=CC=CC5=C4SC6=CC=CC=C56
How it was run: (§1)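 Five library-drug doses spaced by √10 were pinned onto vehicle-anchored 1536-well plates of lung cancer cell lines that had been kept overnight at 37 °C. Cells went 5 days without medium change, then were fixed, permeabilised and Hoechst-stained together, imaged at 4× and counted by MetaXpress. Viability is the ratio of treated-well to vehicle-well nuclei, taken as a median over plates. Plates required control CV below 25% and at least one doubling.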

[2] = compound: CCN(CC)CCCCNc1ncc2cc(-c3cc(OC)cc(OC)c3)c(NC(=O)NC(C)(C)C)nc2n1
How it was run: as §1

PRIMA-1MET = compound: COCC1(CO)C(=O)C2CCN1CC2 [PRIMA-1MET]
How it was run: as §1

Zibotentan = compound: COc1nc(C)cnc1NS(=O)(=O)c1cccnc1-c1ccc(-c2nnco2)cc1 [Zibotentan]
How it was run: as §1

[3] = compound: O=c1cc(-c2cccc3c2Sc2ccccc2S3)oc(N2CCOCC2)c1
How it was run: as §1

Row | Cell Line | relative viability ([1]; 0.01 µM) | relative viability ([1]; 0.03162 µM) | relative viability ([1]; 0.1 µM) | relative viability ([1]; 0.3162 µM) | relative viability ([1]; 1 µM) | relative viability ([2]; 0.01 µM) | relative viability ([2]; 0.03162 µM) | relative viability ([2]; 0.1 µM) | relative viability ([2]; 0.3162 µM) | relative viability ([2]; 1 µM) | relative viability (PRIMA-1MET; 0.2 µM) | relative viability (PRIMA-1MET; 0.6325 µM) | relative viability (PRIMA-1MET; 2 µM) | relative viability (PRIMA-1MET; 6.325 µM) | relative viability (PRIMA-1MET; 20 µM) | relative viability (Zibotentan; 0.08 µM) | relative viability (Zibotentan; 0.253 µM) | relative viability (Zibotentan; 0.8 µM) | relative viability (Zibotentan; 2.53 µM) | relative viability ([3]; 0.08 µM) | relative viability ([3]; 0.253 µM) | relative viability ([3]; 0.8 µM) | relative viability ([3]; 2.53 µM) | relative viability ([3]; 8 µM)
1 | HCC-827 | 1.04 | 1.11 | 1.02 | 1.06 | 0.992 | 1.04 | 1.07 | 1.08 | 1.06 | 1 | 0.986 | 0.952 | 0.791 | 1.02 | 1.02 | 1.05 | 1.04 | 1.05 | 1.01 | 1.04 | 1.07 | 1.05 | 0.773 | 1.06
2 | LOU-NH91 | 0.905 | 0.974 | 0.928 | 1.1 | 0.92 | 0.91 | 0.975 | 1.03 | 1.12 | 0.949 | 1.15 | 0.894 | 0.81 | 0.999 | 0.655 | 0.969 | 0.876 | 1.01 | 1.08 | 0.92 | 1.02 | 0.868 | 0.79 | 0.981
3 | NCI-H1650 | 0.788 | 0.893 | 0.998 | 0.957 | 0.788 | 0.981 | 0.983 | 1.08 | 0.981 | 0.706 | 1.1 | 0.858 | 0.793 | 0.912 | 0.489 | 0.937 |  | 0.994 | 0.968 | 0.851 | 1.07 | 0.844 | 0.888 | 0.868
4 | PC-14 | 0.936 | 0.993 | 0.981 | 1.09 | 0.971 | 1.09 | 1.06 | 1.18 | 1.25 | 0.966 | 1.06 | 0.956 | 0.944 | 1.05 | 0.688 | 1.04 | 0.873 | 1.05 | 1.02 | 1.02 | 1.18 | 0.981 | 0.87 | 1.06
5 | RERF-LC-KJ | 0.992 | 0.974 | 1.03 | 0.949 | 0.956 | 1.02 | 1.11 | 1.04 | 1.06 | 0.978 | 1.11 | 1.01 | 1.06 | 1.12 | 0.952 | 1.02 | 0.925 | 0.904 | 1.03 | 0.932 | 1.09 | 1.03 | 0.968 | 0.929
6 | LC-2-ad | 1.01 | 1.07 | 1.01 | 1.01 | 1.01 | 1.02 | 1.05 | 1.1 | 1.15 | 0.88 | 1.03 | 0.84 | 0.819 | 1.05 | 0.935 | 1.03 | 0.868 | 0.993 | 1.03 | 0.924 | 1.1 | 1.06 | 0.967 | 1.02
7 | NCI-H1299 | 1.01 | 0.987 | 1.02 | 0.994 | 1.01 | 1.03 | 1.06 | 1.09 | 1.06 | 1.02 | 1.08 | 1.03 | 1.03 | 1.02 | 0.977 | 1.02 | 1.02 | 0.998 | 1.02 | 1.02 | 1.02 | 1.04 | 1.02 | 1.01
